Results from patent publication US12605350B2, “Composition for preventing, ameliorating, or treating disease caused by nitration of tyrosine in proteins comprising tyrosine as effective component” (INDUSTRY-ACADEMIC COOPERATION FOUNDATION GYEONGSANG …, priority 2020, dated 2026).

Biological target: T1, human recombinant MnSOD (Homo sapiens, UniProt P04179)
T1 sequence (P04179 25-222): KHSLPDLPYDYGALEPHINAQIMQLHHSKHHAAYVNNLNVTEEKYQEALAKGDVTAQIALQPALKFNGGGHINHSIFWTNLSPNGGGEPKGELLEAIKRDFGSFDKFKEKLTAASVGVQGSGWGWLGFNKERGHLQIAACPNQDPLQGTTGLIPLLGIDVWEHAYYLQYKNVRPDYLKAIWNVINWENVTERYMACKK
Test: SOD activity of human recombinant MnSOD treated with peroxynitrite
Assay type: biochemical
Conditions: human recombinant MnSOD with peroxynitrite (2.1 mM PN), 10 minutes on ice
Procedure: Peroxynitrite was diluted by 40 times with 0.3 M NaOH, and absorbance at 302 nm was measured. Then, it was quantified by using the molar absorption coefficient of peroxynitrite) (ε302=1670 M^−1 cm^−1).
For the measurement of SOD activity, SOD colorimetric activity kit by ThermoFisher was used. Human recombinant MnSOD within reference SOD range, peptide, and peroxynitrite were admixed with one another, and the reaction was allowed to occur on ice for 10 minutes. To a 96-well plate, 10 μl of reference SOD or the reaction mixture, and 50 μl of a substrate solution provided in the kit were added, and the absorbance at 450 nm was measured. After adding 25μl of xanthine oxidase provided in the kit and allowing the reaction to occur for 20 minutes at room temperature, absorbance at 450 nm was measured. By using the data obtained by subtracting the first-measured absorbance from the second-measured absorbance, SOD activity was obtained.

MnSOD (SOD) activity: higher MnSOD activity
Structure (SMILES): N[C@H](Cc1ccc(O)cc1)C(=O)O [D-tyrosine]
